Test results reported in patent US8415342B2, “Besifloxacin ophthalmic composition for the treatment or control of infection” (Bausch & Lomb Incorporated, priority 2008, dated 2013).
Values after ≈ are worked out from the molar mass of the structure shown. Values joined by “and” are separate entries in the source; they are usually repeats but may differ in a detail not shown here. Equal values may be shown once. Read-outs that look alike come from different tables or passages of the source.

Tests used:
Anaerobic Bacteria = assay: MIC against anaerobic bacteria (Table 7); format: cell-based
H. influenzae = assay: MIC and MBC:MIC ratio, recent ocular isolates; format: cell-based; settings: H. influenzae (N = 40); for MIC50 / MIC90: Haemophilus influenzae
S. aureus = assay: MIC and MBC:MIC ratio, recent ocular isolates; format: cell-based; settings: S. aureus (N = 30); for MIC50 / MIC90: Staphylococcus aureus
S. pneumoniae = assay: MIC and MBC:MIC ratio, recent ocular isolates; format: cell-based; settings: S. pneumoniae (N = 35); for MIC50 / MIC90: Streptococcus pneumoniae
[1] = target: T1, S. pneumoniae topoisomerase IV (Streptococcus pneumoniae serotype 4, UniProt P72525+Q59961); assay: biochemical; format: biochemical
T1 sequence (P72525 1-823): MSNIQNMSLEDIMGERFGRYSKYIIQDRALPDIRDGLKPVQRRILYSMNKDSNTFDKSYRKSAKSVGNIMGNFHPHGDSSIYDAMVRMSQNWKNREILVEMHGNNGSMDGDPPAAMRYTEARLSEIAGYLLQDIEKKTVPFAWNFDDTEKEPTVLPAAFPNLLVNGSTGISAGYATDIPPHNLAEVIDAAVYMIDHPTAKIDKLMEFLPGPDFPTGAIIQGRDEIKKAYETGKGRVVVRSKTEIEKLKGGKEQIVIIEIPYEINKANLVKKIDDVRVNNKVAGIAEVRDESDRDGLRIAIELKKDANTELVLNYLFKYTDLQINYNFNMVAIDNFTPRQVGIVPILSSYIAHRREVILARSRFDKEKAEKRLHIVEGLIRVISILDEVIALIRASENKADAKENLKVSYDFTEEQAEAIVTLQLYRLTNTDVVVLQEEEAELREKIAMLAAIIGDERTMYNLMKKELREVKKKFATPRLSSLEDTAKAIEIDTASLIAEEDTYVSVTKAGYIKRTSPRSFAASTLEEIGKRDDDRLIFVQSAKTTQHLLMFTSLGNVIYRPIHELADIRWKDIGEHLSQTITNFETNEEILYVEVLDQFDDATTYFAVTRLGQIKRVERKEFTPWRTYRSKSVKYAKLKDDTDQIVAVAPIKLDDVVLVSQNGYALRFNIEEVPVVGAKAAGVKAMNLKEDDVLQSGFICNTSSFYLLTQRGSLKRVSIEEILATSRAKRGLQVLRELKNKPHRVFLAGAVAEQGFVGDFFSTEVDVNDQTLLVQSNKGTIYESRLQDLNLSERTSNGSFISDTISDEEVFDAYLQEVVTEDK
T1 sequence (Q59961 1-647): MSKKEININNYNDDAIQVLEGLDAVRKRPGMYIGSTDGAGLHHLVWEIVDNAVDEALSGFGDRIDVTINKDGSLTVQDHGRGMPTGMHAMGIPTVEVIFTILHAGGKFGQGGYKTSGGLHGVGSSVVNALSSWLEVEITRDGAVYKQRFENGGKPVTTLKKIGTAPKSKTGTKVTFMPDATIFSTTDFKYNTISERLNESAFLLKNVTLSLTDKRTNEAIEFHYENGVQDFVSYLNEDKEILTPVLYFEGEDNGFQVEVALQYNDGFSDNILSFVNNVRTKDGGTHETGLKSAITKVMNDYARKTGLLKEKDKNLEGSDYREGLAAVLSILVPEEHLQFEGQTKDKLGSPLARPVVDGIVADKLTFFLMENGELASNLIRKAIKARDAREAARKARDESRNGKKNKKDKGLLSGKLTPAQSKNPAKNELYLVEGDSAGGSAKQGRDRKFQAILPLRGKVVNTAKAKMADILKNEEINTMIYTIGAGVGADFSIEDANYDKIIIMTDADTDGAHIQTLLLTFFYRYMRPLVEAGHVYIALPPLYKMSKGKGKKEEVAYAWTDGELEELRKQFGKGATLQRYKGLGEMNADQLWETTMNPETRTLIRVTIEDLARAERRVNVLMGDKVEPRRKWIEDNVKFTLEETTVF

E. coli topoisomerase IV = E. coli topoisomerase IV (Escherichia coli, UniProt P0AFI2+P20083); assay: Cleavable complex stimulation (CC25), topoisomerase IV; format: biochemical; settings: E. coli enzymes; concentration that produces 25% linearization of the DNA
Sequence of E. coli topoisomerase IV (P0AFI2 whole entry): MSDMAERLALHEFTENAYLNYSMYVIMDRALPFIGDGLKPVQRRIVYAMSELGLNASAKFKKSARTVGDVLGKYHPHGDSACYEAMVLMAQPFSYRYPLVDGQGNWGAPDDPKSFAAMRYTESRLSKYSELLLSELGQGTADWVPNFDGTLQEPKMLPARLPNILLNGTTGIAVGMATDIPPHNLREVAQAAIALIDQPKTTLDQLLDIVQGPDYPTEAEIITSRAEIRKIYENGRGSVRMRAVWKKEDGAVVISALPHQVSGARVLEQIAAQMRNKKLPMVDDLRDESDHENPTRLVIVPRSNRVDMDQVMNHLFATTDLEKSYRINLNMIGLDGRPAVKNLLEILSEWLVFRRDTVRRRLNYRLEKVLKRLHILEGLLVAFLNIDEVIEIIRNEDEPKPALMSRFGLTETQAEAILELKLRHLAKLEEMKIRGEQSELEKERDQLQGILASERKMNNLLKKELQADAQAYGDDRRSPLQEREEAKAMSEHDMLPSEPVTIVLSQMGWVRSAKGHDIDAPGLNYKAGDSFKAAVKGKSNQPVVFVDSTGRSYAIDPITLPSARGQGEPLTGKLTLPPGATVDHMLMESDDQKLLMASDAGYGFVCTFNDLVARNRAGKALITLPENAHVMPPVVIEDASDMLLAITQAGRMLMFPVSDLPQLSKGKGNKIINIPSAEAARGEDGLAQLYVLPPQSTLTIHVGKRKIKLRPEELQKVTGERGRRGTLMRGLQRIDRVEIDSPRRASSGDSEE
Sequence of E. coli topoisomerase IV (P20083 whole entry): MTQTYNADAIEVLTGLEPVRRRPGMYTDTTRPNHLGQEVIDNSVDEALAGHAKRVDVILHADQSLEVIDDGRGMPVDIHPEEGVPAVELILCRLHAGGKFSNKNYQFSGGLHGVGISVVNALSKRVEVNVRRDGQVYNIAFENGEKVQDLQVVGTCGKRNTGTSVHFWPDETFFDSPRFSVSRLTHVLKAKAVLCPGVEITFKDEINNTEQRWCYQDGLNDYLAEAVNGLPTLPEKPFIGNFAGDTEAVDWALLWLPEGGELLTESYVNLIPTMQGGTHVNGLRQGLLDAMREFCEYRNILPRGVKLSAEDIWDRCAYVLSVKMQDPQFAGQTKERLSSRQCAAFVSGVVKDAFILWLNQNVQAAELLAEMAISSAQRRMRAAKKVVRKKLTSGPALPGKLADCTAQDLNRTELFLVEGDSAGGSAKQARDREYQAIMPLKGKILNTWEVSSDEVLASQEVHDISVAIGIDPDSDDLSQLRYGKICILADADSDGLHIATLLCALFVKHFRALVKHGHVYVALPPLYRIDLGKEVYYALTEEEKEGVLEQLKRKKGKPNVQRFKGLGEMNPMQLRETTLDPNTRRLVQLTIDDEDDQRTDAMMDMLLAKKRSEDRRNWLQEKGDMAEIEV

[2] = Nonclinical ocular and systemic pharmacokinetics after topical ocular administration; format: in vivo; settings: for peak plasma besifloxacin concentration, on average: topical ocular administration
From the text: Results from the nonclinical ocular pharmacokinetic (PK) studies indicate that topical ocular administration of besifloxacin ophthalmic suspension, 0.6%, is associated with rapid absorption and distribution of besifloxacin into ocular tissues. […] However, based on the extensive ocular safety data available for besifloxacin, no adverse consequences are expected.
Systemic exposure to besifloxacin following topical ocular administration was low, with peak plasma besifloxacin concentrations of 7.6 and 9.2 ng/mL, respectively, on average.

[3] = Bacteroides fragilis, Bacteroides fragilis (N = 20), read-out: MIC50
[4] = Bacteroides fragilis, Bacteroides fragilis (N = 20), read-out: MIC90
[5] = Clostridium perfringens (N = 21)
[6] = Clostridium perfringens, Clostridium perfringens (N = 21)
[7] = Cutibacterium acnes, Propionibacterium acnes (N = 21), read-out: MIC50
[8] = Cutibacterium acnes, Propionibacterium acnes (N = 21), read-out: MIC90
[9] = Fusobacterium spp. (N = 21), read-out: MIC50
[10] = Prevotella spp. (N = 20), read-out: MIC50
[11] = Prevotella spp. (N = 20), read-out: MIC90
[12] = Propionibacterium acnes (N = 21)

## COc1c(N2CCNC(C)C2)c(F)cc2c(=O)c(C(=O)O)cn(C3CC3)c12 (stereo not shown) [Gatifloxacin]
Anaerobic Bacteria; Bacteroides fragilis (N = 20)
  MIC Range: 1 to 16 mg/L
Anaerobic Bacteria; [3]
  MIC50: 2 mg/L (≈ 5.33 µM)
Anaerobic Bacteria; [4]
  MIC90: 4 mg/L (≈ 10.7 µM)
Anaerobic Bacteria; [5]
  MIC Range: 0.5 to 1 mg/L
Anaerobic Bacteria; [6]
  MIC50: 1 mg/L (≈ 2.66 µM)
  MIC90: 1 mg/L (≈ 2.66 µM)
Anaerobic Bacteria; [7]
  MIC50: 0.25 mg/L (≈ 0.666 µM)
Anaerobic Bacteria; [8]
  MIC90: 0.5 mg/L (≈ 1.33 µM)
Anaerobic Bacteria; [9]
  MIC50: 1 mg/L (≈ 2.66 µM)
Anaerobic Bacteria; Fusobacterium spp. (N = 21), read-out: MIC90
  MIC90: 4 mg/L (≈ 10.7 µM)
Anaerobic Bacteria; [10]
  MIC50: 8 mg/L (≈ 21.3 µM)
Anaerobic Bacteria; [11]
  MIC90: 16 mg/L (≈ 42.6 µM)
Anaerobic Bacteria; [12]
  MIC Range: 0.25 to 0.5 mg/L

## CC[C@H]1OC(=O)[C@H](C)[C@@H](O[C@H]2C[C@@](C)(OC)[C@@H](O)[C@H](C)O2)[C@H](C)[C@@H](O[C@@H]2O[C@H](C)C[C@H](N(C)C)[C@H]2O)[C@](C)(O)C[C@@H](C)CN(C)[C@H](C)[C@@H](O)[C@]1(C)O [Azithromycin]
H. influenzae; recent ocular isolates
  % S (susceptible isolates, CLSI): 100.0%
  MIC Range: ≦0.004-2 μg/mL
  MIC50: 0.5 mg/L
  MIC90: 1 mg/L
S. aureus; recent ocular isolates
  % S (susceptible isolates, CLSI): 53.3%
  MIC50: 1 mg/L
  MIC90: > 8 mg/L
S. pneumoniae; recent ocular isolates
  % S (susceptible isolates, CLSI): 62.9%
  MIC50: 0.06 mg/L
  MIC90: > 8 mg/L

## N[C@@H]1CCCCN(c2c(F)cc3c(=O)c(C(=O)O)cn(C4CC4)c3c2Cl)C1 [Besifloxacin, (R)-(+)-(3-amino-2,3,4,5,6,7-hexahydro-1H-azepin-1-yl)-8-chloro-1-cyclopropyl-6-fluoro-1,4,-dihydro-4-oxo-3-quinolinecarboxylic acid]
[1]; IC50 Topo IV, S. pneumoniae enzymes
  IC50: 1 µM and 1.02 µM
[1]; S. pneumoniae topoisomerase IV
  potency relative to ciprofloxacin and moxifloxacin (catalytic inhibition and cleavable complex stimulation): 2.5- to 5.0 fold
E. coli topoisomerase IV
  CC25 Topo IV: 1.4 μM and 0.6 μg/mL
H. influenzae
  % of isolates with MBC:MIC ratio 1: 42.5%
  % of isolates with MBC:MIC ratio 2: 50.0%
  % of isolates with MBC:MIC ratio 4: 7.5%
  % of isolates with MBC:MIC ratio 8: 0.0%
  % of isolates with MBC:MIC ratio ≧16: 0.0%
H. influenzae; recent ocular isolates
  MIC Range: ≦0.004-0.03 μg/mL
  MIC50: 0.015 mg/L
  MIC90: 0.015 mg/L
S. aureus
  % of isolates with MBC:MIC ratio 1: 56.7%
  % of isolates with MBC:MIC ratio 2: 23.3%
  % of isolates with MBC:MIC ratio 4: 6.7%
  % of isolates with MBC:MIC ratio 8: 13.3%
  % of isolates with MBC:MIC ratio ≧16: 0.0%
S. aureus; recent ocular isolates
  MIC Range: 0.015 to 4 mg/L
  MIC50: 0.12 mg/L
  MIC90: 4 mg/L
S. pneumoniae
  % of isolates with MBC:MIC ratio 1: 60.0%
  % of isolates with MBC:MIC ratio 2: 37.1%
  % of isolates with MBC:MIC ratio 4: 2.9%
  % of isolates with MBC:MIC ratio 8: 0.0%
  % of isolates with MBC:MIC ratio ≧16: 0.0%
S. pneumoniae; recent ocular isolates
  MIC Range: 0.015 to 0.5 mg/L
  MIC50: 0.06 mg/L
  MIC90: 0.06 mg/L
Anaerobic Bacteria; [3]
  MIC50: 0.5 mg/L (≈ 1.27 µM)
Anaerobic Bacteria; [4]
  MIC90: 1 mg/L (≈ 2.54 µM)
Anaerobic Bacteria; [5]
  MIC Range: 0.12 to 0.25 mg/L
Anaerobic Bacteria; [6]
  MIC50: 0.25 mg/L (≈ 0.635 µM)
  MIC90: 0.25 mg/L (≈ 0.635 µM)
Anaerobic Bacteria; [7]
  MIC50: 0.25 mg/L (≈ 0.635 µM)
Anaerobic Bacteria; [8]
  MIC90: 0.25 mg/L (≈ 0.635 µM)
Anaerobic Bacteria; Fusobacterium spp. (N = 21)
  MIC Range: 0.12 to 8 mg/L
Anaerobic Bacteria; [9]
  MIC50: 0.25 mg/L (≈ 0.635 µM)
Anaerobic Bacteria; Prevotella spp. (N = 20)
  MIC Range: 0.06 to 16 mg/L
Anaerobic Bacteria; [10]
  MIC50: 1 mg/L (≈ 2.54 µM)
Anaerobic Bacteria; [11]
  MIC90: 4 mg/L (≈ 10.2 µM)
Anaerobic Bacteria; [12]
  MIC Range: 0.12 to 0.25 mg/L
[2]; non-excretory organs, topical or ocular, nonclinical, repeated (BID, TID, QID) topical ocular administration
  Cmax: < 25 ng/g
[2]; ocular tissues, topical or ocular, nonclinical, topical ocular 0.6% suspension, read-out: apparent half-life of elimination from ocular tissues
  half-life: > 5 h
[2]; first of two groups not named ('respectively')
  peak plasma besifloxacin concentration, on average: 7.6 ng/mL
[2]; second of two groups not named ('respectively')
  peak plasma besifloxacin concentration, on average: 9.2 ng/mL
